Read-outs that look alike come from different tables or passages of the source.
Columns and labels:
[1] = Estimated partition coefficients (K) of detergents into the lipid membrane; type: physicochemical; details: estimated as inverse of CMC; P-105 at 37° C.
Description: Critical micelle concentrations (CMC) and estimated partition coefficients (K) of several detergents assayed. For membrane-solubilizing detergents, the product of the CMC and the partition coefficient is of order unity.

[2] = Critical micelle concentrations (CMC) of detergents; type: physicochemical; details: source not stated
Description: RESULTS: Some ethylene glycol-containing surfactants can cause enhanced release of a self-quenching fluorescent marker dye from liposomes under 20 kHz ultrasound stimulation.[19] In FIG. 4, the rate of fluorescence increase caused by release of liposomally-entrapped calcein dye is shown in liposomes treated with five different surfactants. The total surfactant concentrations were normalized to the CMCs (Table 1, below). CMCs for TRITON® X-100, TRITON® X-405, PLURONIC® P-105 [20] and TWEEN® 80 were obtained from the literature. All surfactants, except DPPE-PEG2000, were dissolved in the buffer prior to the introduction of the liposomes. DPPE-PEG2000 was incorporated into the liposomes prior to extrusion. For all surfactants except TRITON® X-100, the rate of fluorescence increase in the absence of ultrasound was <0.04% per second, i.e., off the bottom of the figure. (At the higher TRITON® X-100 concentrations, the spontaneous leakage was >0.11% per second.) All of the surfactants induced about a 10-15 fold increase in the response to 20 kHz ultrasound. More remarkably, the surfactants reached maximal effectiveness at concentrations of about 1% of the critical micelle concentration. […] Furthermore, the different surfactants plateau at different levels. […]

[3] = obtained from the literature; P-105 at 37° C.; cited from earlier work

Row | Substance | K (estimated partition coefficient) [1] [M⁻¹] | CMC [2] [µM] | CMC [3] [µM]
1 | 1,2-dipalmitoyl-sn-glycero-3-phosphoethanolamine-N-methoxy(polyethylene glycol)2000 [DPPE-PEG2000, reference compound] | 14300 | 70 | –
2 | TWEEN ® 20 | 12500 | 80 | –
3 | TWEEN ® 80 | 10000 | – | 100

Source: patent publication US20060002994A1, “Responsive liposomes for ultrasonic drug delivery” (priority 2004, published 2006)
